Reference: US5712265A (The General Hospital Corporation, priority 1995, dated 1998)
Counter-ions that a name gives are not always drawn. Like-named read-outs stand apart in the source and are kept apart here.

Experiments:
[1] = cited from earlier work
[2] = 0.5 or 0.75 mg s.c., cited from earlier work
[3] = in vivo; cited from earlier work
[4] = 5 mg at 2230 h; cited from earlier work
[5] = for Cholesterol / HDL-Chol / Plasma Glucose / Plasma Insulin / Reproperitoneal Fat / Triglyceride: 18 days after last treatment; for Food Consumption: P 4 mg/kg or M 500 μg/kg oral, two weeks
Experimental: Forty male older Sprague-Dawley rats (6 months of age) were separated into 5 groups of 8 rats each. […] A control group (C) received peanut butter only daily at 0800 and 1800. Rat chow (Purina) was made available ad libitum. Treatment lasted two weeks. Blood samples were taken and retroperitoneal fat was dissected and weighed 18 days after the last day of treatment. This made it possible to assess long term effects of the treatment. […] All animals were fasted 6 hours prior to blood sampling and sacrifice.

[6] = 0.5 mg intramuscularly, cited from earlier work
[7] = in vivo; cited from earlier work; remark: listed apart in the source
[8] = Timed administration of methyl scopolamine, long-term effects (Example 7); format: in vivo, Sprague-Dawley rat; settings: for Retroperitoneal Fat: 0.5 mg/kg BW two weeks
Experimental: Methylscopolamine (MSC) (0.5 mg/kgBW) in 1 mL peanut butter was fed at light onset (AM) or at light offset (PM) to 9 Sprague-Dawley rats (30 weeks old) in each group daily for two weeks. Nine-other rats were fed only peanut butter. 18 days after the last treatment, the rats were sacrificed and the indices in Table 6 were measured.

[9] = 2.5 mg once, cited from earlier work
[10] = 7.5 to 20 mg daily by mouth; cited from earlier work
[11] = 3.0 and 6.0 μg/kg intramuscularly at 11:00 pm; cited from earlier work
[12] = cited from earlier work; remark: listed apart in the source
isolated fat cells = settings: in vitro; cited from earlier work
[13] = tested on: adipose tissue cyclic AMP phosphodiesterase; settings: cited from earlier work
[14] = in vivo; cited from earlier work; remark: listed apart in the source
[15] = tested on: 3-hydroxy-3-methylglutaryl coenzyme A (HMG-CoA) reductase; settings: cited from earlier work
[16] = in vivo; cited from earlier work; remark: listed apart in the source
[17] = dosed at 0800, 18 days post-treatment
[18] = AM, 18 days after last treatment
[19] = PM, 18 days after last treatment
[20] = light-offset vs light-onset administration

C[N+]1(C)[C@@H]2C[C@@H](OC(=O)[C@H](CO)c3ccccc3)C[C@H]1[C@@H]1O[C@@H]12 [methyl scopolamine]
tolerability ([1]; chronic use of 5 mg): not particularly well tolerated by most patients | dawn phenomenon ([1]; given at bedtime): attenuated | sleep induced growth hormone secretion ([1]; given at bedtime): suppressed | elevated AVP levels ([2]; after physostigmine): decreased | elevated cortisol levels ([2]; after physostigmine): decreased | elevated prolactin levels ([2]; after physostigmine): decreased | growth hormone secretion [2]: inhibited | effect of physostigmine on plasma pituitary hormones (cortisol, prolactin, ACTH) [3]: inhibited | dawn effect [4]: decrease | peak growth hormone concentrations after sleep [4]: marked inhibition | food consumption, change in words ([5]; dosed at 0800): significant increase | insulin resistance (plasma insulin and glucose), in words [5, 17]: improved insulin resistance | plasma lipid indices, change in words [5, 17]: significantly reduced retroperitoneal body fat, plasma lipid indices | retroperitoneal body fat, change in words [5, 17]: significantly reduced retroperitoneal body fat | Cholesterol ([5]; dosed at 0800): 96.8 ± 1.8 mg/dL | HDL-Chol ([5]; dosed at 0800): 43.9 ± 2.7 mg/dL | Plasma Glucose ([5]; dosed at 0800): 158 ± 4 | Plasma Insulin ([5]; dosed at 0800): 118 ± 7 | Reproperitoneal Fat ([5]; dosed at 0800): 2.18 ± 0.31 g | Triglyceride ([5]; dosed at 0800): 90.0 ± 3.1 mg/dL | Food Consumption ([5]; dosed at 0800): 17.5 ± 1.3 g/day | Cholesterol ([5]; dosed at 1800): 133.6 ± 1.9 mg/dL | HDL-Chol ([5]; dosed at 1800): 61.0 ± 1.9 mg/dL | Plasma Glucose ([5]; dosed at 1800): 148 ± 7 | Plasma Insulin ([5]; dosed at 1800): 171 ± 14 | Reproperitoneal Fat ([5]; dosed at 1800): 2.61 ± 0.19 g | Triglyceride ([5]; dosed at 1800): 188.0 ± 5.7 mg/dL | Food Consumption ([5]; dosed at 1800): 14.9 ± 1.0 g/day | HDL-cholesterol, change in words ([5]; only with administration at 1800): increase | overall and mean peak growth hormone levels during the night ([6]; 1/2 h before bedtime): dramatically reduced | insulin-induced hypoglycemia [6]: did not affect sleep patterns or insulin-induced hypoglycemia | prolactin levels during sleep [6]: did not affect prolactin levels during sleep | sleep patterns [6]: did not affect sleep patterns | half-life [7]: 4 to 6 h | Retroperitoneal Fat ([8]; AM (light onset), 18 days after last treatment): 2.78 ± 0.08 g | Cholesterol [8, 18]: 94.7 ± 4.9 mg/dL | Glucose [8, 18]: 151.8 ± 19.6 mg/dL | HDL Cholesterol [8, 18]: 32.5 ± 4.1 mg/dL | Insulin [8, 18]: 144.1 ± 5.9 μU/mL | Triglycerides [8, 18]: 197 ± 18 mg/dL | Retroperitoneal Fat ([8]; PM (light offset), 18 days after last treatment): 2.45 ± 0.07 g | Cholesterol [8, 19]: 94.1 ± 5.7 mg/dL | HDL Cholesterol [8, 19]: 45.2 ± 4.2 mg/dL | Insulin [8, 19]: 163.8 ± 2.7 μU/mL | Triglycerides [8, 19]: 106 ± 21 mg/dL | persistence after cessation of treatment ([8]; Table 6): long-term effect that persists after cessation of the treatment | glucose, change in words ([8]; light onset or offset): significantly reduced | insulin, change in words ([8]; light onset or offset): significantly reduced | retroperitoneal fat, change in words ([8]; light onset or offset): significantly reduced | cholesterol, change in words [8, 20]: significantly increased cholesterol | insulin, change in words [8, 20]: significantly reduced triglycerides and insulin | triglycerides, change in words [8, 20]: significantly reduced triglycerides | HDL, change in words ([8]; only at light offset): increased HDL | triglycerides, change in words ([8]; only at light offset): significantly reduced

CC(C)C[C@H]1C(=O)N2CCC[C@H]2[C@]2(O)O[C@](NC(=O)[C@@H]3C=C4c5cccc6[nH]c(Br)c(c56)C[C@H]4N(C)C3)(C(C)C)C(=O)N12 [bromocriptine]
plasma glucose concentration ([9]; 2 h prior to glucose challenge): decrease | Plasma Insulin [9]: decrease with drug administration was significant | plasma prolactin levels [9]: decreased markedly | patients having aggravation [10]: 4 | patients having improvement in glucose regulation [10]: six | patients showing no significant change [10]: 14

CN1[C@@H]2C[C@@H](OC(=O)[C@H](CO)c3ccccc3)C[C@H]1[C@@H]1O[C@@H]12 [scopolamine]
rapid eye movement latency [11]: significant dose-related delay | susceptibility to motion sickness ([12]; 0.01 mg/kg orally 2 h before rotation): significantly decreased | hormone concentrations (ACTH, cortisol, STH, prolactin) vs placebo ([12]; 0.01 mg/kg orally): identical

CN1[C@@H]2C[C@@H](OC(=O)[C@H](CO)c3ccccc3)C[C@H]1[C@@H]1O[C@@H]12 [scopolamine hydrobromide]
glycerol release from isolated fat cells (isolated fat cells): did not significantly affect | adipose tissue cyclic AMP phosphodiesterase activity [13]: nor inhibited

CCOC(=O)C(C)(C)Oc1ccc(Cl)cc1 [clofibrate]
effectiveness [14]: varies from subject to subject | side effects [14]: nephrotic syndromes, myalgia, nausea and abdominal pain

CC[C@H](C)C(=O)O[C@H]1C[C@@H](C)C=C2C=C[C@H](C)[C@H](CC[C@@H]3C[C@@H](O)CC(=O)O3)[C@H]21 [lovastatin]
HMG-CoA reductase inhibition [15]: selectively inhibits | increase in HDL concentrations [16]: 5-10% | total cholesterol [16]: specifically reduces total cholesterol

CN1CCN(CC(=O)N2c3ccccc3C(=O)Nc3cccnc32)CC1 [pirenzepine]
half-life [7]: about 11 hours
